In patent US7662961B2, “N-phenylpyrazole derivatives as pesticides” (Merial Limited, priority 2004, dated 2010):

melting point: 118 °C
Structure (SMILES): CN(C(=S)N(C)c1c([S+]([O-])C(F)(F)F)c(C#N)nn1-c1c(Cl)cc(C(F)(F)F)cc1Cl)c1c([S+]([O-])C(F)(F)F)c(C#N)nn1-c1c(Cl)cc(C(F)(F)F)cc1Cl (stereo not shown) [Compound 01-05, N,N′-Bis[3-cyano-1-(2,6-dichloro-4-trifluoromethylphenyl)-4-trifluoromethylsulfinylpyrazol-5-yl]-N,N′-dimethylthiourea]
